Assays:
[1] = test system: Sendai virus; test: Circulating antibody unit (HIU) in serum by hemagglutination inhibition (HI) reaction after vaccine administration; type: in vivo, mouse; settings: 500 CIU vaccine nasally
Protocol: The provitamins prepared to have a composition in the following Formulation Examples 1 to 4 were individually or in combination (hereinafter referred to as “provitamin”) dissolved in a phosphate buffered saline (PBS) to a concentration of 0.5% and then continuously administered perorally or peritoneally to a mouse (ICR, 3 weeks old, male) from two weeks before the administration of a vaccine. The sample was administered such that APM per day was 80 mg/kg-body weight in the case of peroral administration and the dose per day was 40 mg/kg-body weight in the case of injection.
The vaccine used here was TR-5 strain which is an attenuated strain of Sendai virus, and 500 CIU (cell infectious unit) thereof was nasally administered to a mouse under ether anesthesia. That is, a stock solution (10^6 CIU/ml) of TR-5 strain was diluted with PBS and 50 μl of each sample was nasally administered. After the administration of vaccine, the serum was sampled in aging (inoculation day, after 7 days, after 14 days and after 21 days) and the antiviral antibody unit in the serum was measured by the hemagglutination inhibition (HI) reaction which inhibits the hemagglutination (HA) reaction.
The HA reaction is a reaction where a virus particle or an HA antigen adsorbs to an erythrocyte and combines the erythrocytes with each other to cause hemagglutination. In the measurement of the HA unit, 2-fold step dilution series of a virus solution are prepared, a constant amount of erythrocytes is added to each dilution and after the passing of a predetermined time, the agglutination image is examined. The HA unit (HAU) is the reciprocal of the highest dilution number in a test tube showing agglutination positive. The HA reaction is inhibited by previously adding an antiviral antibody to the virus solution. This is the HI reaction.
To 25 μl of a serum subjected to 2-fold step dilution, 25 μl of a virus solution adjusted to 16 HAU was added and allowed to stand at room temperature for 1 hour. Subsequently, 50 μl of a 0.5% chicken erythrocyte suspension was added and allowed to stand at 4° C. for 1 hour. Thereafter, the HI unit was determined.

[2] = test system: Sendai virus strongly toxic strain; test: Survival rate after nasal infection with Sendai virus strongly toxic strain; type: in vivo, mouse; settings: challenge 15 LD50 at day 14, 20 days after infection
Protocol: The administration of provitamin and inoculation of a vaccine were performed in the same manner as in Example 1, and 14 days after the inoculation of attenuated vaccine, Sendai virus strongly toxic strain (1.7×10^7 CIU/ml) was subjected to 15-hold dilution in PBS. Subsequently, 70 μl of the dilution (about 8×10^4 CIU:15 LD50) was nasally infected to a mouse under ether anesthesia and 20 days after the infection with the strongly toxic strain, the survival rate of mice was examined.
The test solution was step-diluted and each dilution was used for a group of animals. The life and death were examined and the point of dilution degree where 50% of death was recognized was designated as LD50.

[3] = test system: macrophages; test: Number of macrophages sampled from the abdominal cavity 14 days after vaccine inoculation; type: in vivo, mouse; settings: 500 CIU vaccine, 14 days after inoculation
Protocol: (§1) The administration of provitamin and inoculation of a vaccine (500 CIU) were performed in the same manner as in Example 1. 14 Days after the inoculation of the vaccine, macrophages were sampled from the abdominal cavity of the mouse and the number of macrophages was counted through a microscope. Also, the activity of the macrophage was examined as follows. Fibrosarcoma SMT-5 (target cell) and the sampled macrophages (effector cell) were mixed at a ratio of 1:7 and cultured in CO2 medium for 24 hours. 8 Hours before the completion of culture, ^3H-thymidine was added and the amount of ^3H-thymidine taken up into the residual target cells was measured by a liquid scintillation counter. From the value obtained, the activity of macrophage was determined. The amount of ^3H-thymidine in the control group was the amount of ^3H-thymidine taken up into the target cells where the macrophages were not added.

[4] = test system: Fibrosarcoma SMT-5 (target cell); test: Activity of sampled macrophages against target cells (3H-thymidine uptake); type: cell-based, mouse; settings: 500 CIU vaccine, macrophages sampled day 14, target:effector 1:7, 24 hours
Protocol: as §1

[5] = test system: Sendai virus; test: Secretory IgA induction by Sendai virus live vaccine, trachea and bronchia wash, ELISA; type: in vivo, mouse; settings: 500 CIU vaccine, 14 days after inoculation
Protocol: The administraion of provitamin and inoculation of a vaccine were performed in the same manner as in Example 1. 14 Days after the inoculation of vaccine, the mouse was sacrificed, the trachea and bronchia were twice washed with 1 ml of PBS (phosphate buffered saline), and IgA recovered in PBS was measured by the enzyme linked immunosorbent assay (ELISA).
Sendai virus was fixed on a plate and reacted with a test solution. Thereafter, peroxidase marker anti-mouse IgA immunoglobulin was reacted and then phenylenediamine 2HCl was added to cause coloration. OD 492 was measured and from the calibration curve obtained based on the standard IgA, the IgA amount in the test solution was determined.

[6] = peritoneal administration of provitamin 40 mg/kg per day, day 0
[7] = peritoneal administration of provitamin 40 mg/kg per day, day 7
[8] = peritoneal administration of provitamin 40 mg/kg per day, day 14
[9] = peritoneal administration of provitamin 40 mg/kg per day, day 21
[10] = peroral administration of provitamin 80 mg/kg per day, day 0 after inoculation
[11] = peroral administration of provitamin 80 mg/kg per day, day 7
[12] = peroral administration of provitamin 80 mg/kg per day, day 14
[13] = peroral administration of provitamin 80 mg/kg per day, day 21
[14] = peroral, amount of vaccine inoculated 0 CIU
[15] = peroral, amount of vaccine inoculated 50 CIU
[16] = peroral, amount of vaccine inoculated 500 CIU

SMILES: O=C1O[C@H]([C@@H](O)CO)C(O)=C1OP(=O)(O)O [Formulation Example 2, L-ascorbic acid-2-monophosphate]
- HIU [1, 6]: <16 HIU
- HIU [1, 7]: <16 HIU
- HIU [1, 8]: 32 HIU
- HIU [1, 9]: 64 HIU
- HIU [1, 10]: <16 HIU
- HIU [1, 11]: <16 HIU
- HIU [1, 12]: 16 HIU
- HIU [1, 13]: 64 HIU
- Survival Rate [2, 14]: 1/10
- Survival Rate [2, 15]: 9/10
- Survival Rate [2, 16]: 10/10
- Macrophage/Body ([3]; peroral route): 6.5 × 10^6
- Macrophage Activity ([4]; peroral route): 20.2
- IgA ([5]; peroral route): 69 U/μg

SMILES: O=C1O[C@H]([C@@H](O)CO)C(O)=C1OP(=O)(O)O [Formulation Example 1, L-ascorbic acid-2-monophosphate]
- HIU [1, 6]: <16 HIU
- HIU [1, 7]: 16 HIU
- HIU [1, 8]: 32 HIU
- HIU [1, 9]: 64 HIU
- HIU [1, 10]: <16 HIU
- HIU [1, 11]: <16 HIU
- HIU [1, 12]: 16 HIU
- HIU [1, 13]: 64 HIU
- Survival Rate ([2]; peritoneal, amount of vaccine inoculated 0 CIU): 0/10
- Survival Rate ([2]; peritoneal, amount of vaccine inoculated 50 CIU): 8/10
- Survival Rate ([2]; peritoneal, amount of vaccine inoculated 500 CIU): 8/10
- Survival Rate [2, 14]: 0/10
- Survival Rate [2, 15]: 9/10
- Survival Rate [2, 16]: 9/10
- Macrophage/Body ([3]; peritoneal route): 9.1 × 10^6
- Macrophage/Body ([3]; peroral route): 6.8 × 10^6
- Macrophage Activity ([4]; peritoneal route): 22.1
- Macrophage Activity ([4]; peroral route): 20.5
- IgA ([5]; peritoneal route): 69 U/μg
- IgA ([5]; peroral route): 51 U/μg
